Our source for the Activity values is ChEMBL document CHEMBL2074415, “Expression and characterization of a functional rat liver Na+ bile acid cotransport system in COS-7 cells” (Am J Physiol, 1994).

What all share (type): functional, cell-based
Common to all, as to conditions: monkey, cos-7, 100 µM

In data set [1] the target is T1, Hepatic sodium/bile acid cotransporter (Rattus norvegicus, UniProt P26435).
T1 sequence (P26435 whole entry): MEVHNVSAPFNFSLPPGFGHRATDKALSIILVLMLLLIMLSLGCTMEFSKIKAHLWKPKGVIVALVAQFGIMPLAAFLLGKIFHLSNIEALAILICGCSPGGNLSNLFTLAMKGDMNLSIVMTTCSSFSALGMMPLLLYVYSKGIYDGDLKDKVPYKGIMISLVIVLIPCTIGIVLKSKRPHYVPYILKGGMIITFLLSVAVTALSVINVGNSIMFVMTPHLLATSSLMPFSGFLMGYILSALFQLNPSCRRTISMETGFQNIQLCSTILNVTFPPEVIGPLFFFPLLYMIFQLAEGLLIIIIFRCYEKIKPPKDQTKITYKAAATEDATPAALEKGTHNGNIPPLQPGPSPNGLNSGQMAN
As to the kind of experiment: TP_TRANSPORTER: inhibition of Taurocholate uptake (Taurocholate: 5 uM, CDCA: 100 uM) in Ntcp-expressing COS-7 cells.

The target of data set [2] is T1, Hepatic sodium/bile acid cotransporter. As to the kind of experiment: TP_TRANSPORTER: inhibition of Taurocholate uptake (Taurocholate: 5 uM, TUDC: 100 uM) in Ntcp-expressing COS-7 cells.
Data set [3] has the same target. Nature of the data set: TP_TRANSPORTER: inhibition of Taurocholate uptake (Taurocholate: 5 uM, UDCA: 100 uM) in Ntcp-expressing COS-7 cells.

Molecules are shown by their SMILES.

As to `C[C@H](CCC(=O)O)[C@H]1CC[C@H]2[C@@H]3[C@H](O)C[C@@H]4C[C@H](O)CC[C@]4(C)[C@H]3CC[C@]12C` [CHENODIOL], in data set [1], the Activity entry was “inhibitor [(at a rough estimate) 25 % of control]”.
As to `C[C@H](CCC(=O)NCCS(=O)(=O)O)[C@H]1CC[C@H]2[C@@H]3[C@@H](O)C[C@@H]4C[C@H](O)CC[C@]4(C)[C@H]3CC[C@]12C` [TAURURSODIOL], in data set [2], the Activity entry was “inhibitor [(at a rough estimate) 25 % of control]”.
Turning to `C[C@H](CCC(=O)O)[C@H]1CC[C@H]2[C@@H]3[C@@H](O)C[C@@H]4C[C@H](O)CC[C@]4(C)[C@H]3CC[C@]12C` [URSODIOL], the Activity result in data set [3] was “inhibitor [(at a rough estimate) 45 % of control]”.
